From patent US20210193322A1, “NETWORK METHODS FOR NEURODEGENERATIVE DISEASES” (Genting TauRx Diagnostic Centre SDN BHD, priority 2018, published 2021)

Legend:
AD diagnosed patients = experiment: Structural correlation network analysis (MRI cortical thickness and surface area correlation matrices, node degree) in AD patients; format: in vivo, human
bvFTD = details: cited from earlier work

SMILES | number of inverse/compensatory non-homologous cortical thickness correlations compared with healthy elderly controls (AD diagnosed patients; 54 AD patients with CDR 0.5 only, baseline and week 65, LMTM 8 mg/day monotherapy, vs 202 healthy elderly, FIGS. 27A-27D) | number of inverse/compensatory non-homologous surface area correlations compared with healthy elderly controls (AD diagnosed patients; 54 AD patients with CDR 0.5 only, baseline and week 65, LMTM 8 mg/day monotherapy, vs 202 healthy elderly, FIGS. 28A-28D) | cortical thickness networks compared with healthy elderly controls (AD diagnosed patients; 96 AD patients (CDR 0.5, 1 or 2), baseline and week 65, LMTM 8 mg/day monotherapy, vs 202 healthy elderly, FIGS. 25A-25D) | surface area networks compared with healthy elderly controls (AD diagnosed patients; 96 AD patients (CDR 0.5, 1 or 2), baseline and week 65, LMTM 8 mg/day monotherapy, vs 202 healthy elderly, FIGS. 26A-26D) | compensatory network correlations (especially non-homologous, positive and inverse correlations) (AD diagnosed patients; summary statement) | cortical thickness correlations, within-lobe (positive) and between-lobe compensatory (inverse) (AD diagnosed patients; week 65 vs baseline, LMTM 8 mg/day monotherapy, 96 AD patients, FIGS. 21A-21B) | surface area correlations, within-lobe (positive) and between-lobe compensatory (inverse) (AD diagnosed patients; week 65 vs baseline, LMTM 8 mg/day monotherapy, 96 AD patients, FIGS. 23A-23B) | effect on cortical thickness structural correlation networks (correlation matrix) (AD diagnosed patients; week 65 vs baseline, LMTM 8 mg/day with symptomatic AD treatments (ach1), 445 AD patients, FIGS. 19A-19B) | effect on non-homologous inter-lobar node degree (cortical thickness and surface area, positive and inverse correlations) (AD diagnosed patients; week 65 vs week 0, LMTM 8 mg/day as add-on, ach1 group, FIGS. 20A-20D) | number of positive and inverse non-homologous cortical thickness correlations (inter-lobar node degree) (AD diagnosed patients; week 65 vs week 0, LMTM 8 mg/day monotherapy, ach0 group, FIGS. 22A-22B) | number of positive and inverse/compensatory surface area correlations (non-homologous inter-lobar node degree) (AD diagnosed patients; week 65 vs week 0, LMTM 8 mg/day monotherapy, ach0 group, FIGS. 24A-24B) | treatment benefit in bvFTD (bvFTD)
CN(C)c1ccc2c(c1)Sc1cc(N(C)C)ccc1N2 [LMTM, leuco-methylthioninium bis(hydromethanesulfonate)] | equivalent to the normal elderly controls | either equivalent to or lower than normal elderly controls | brings the cortical thickness networks closer to normal | normalizes surface area networks | reduce compensatory network correlations | major reduction in thickness correlations | significant reductions in surface area correlations | minimal effect | minimal overall effect | significant reduction | significant reduction | 
CC12CC3CC(C)(C1)CC(N)(C3)C2 [memantine] |  |  |  |  |  |  |  |  |  |  |  | no treatment benefit
